Laboratory results: publication PMC12136037, “Type II kinase inhibitors that target Parkinson’s disease–associated LRRK2” (Science Advances, 2025)
pEC50: −log10 of the molar value. Where “and” joins values, the source holds several entries; their conditions need not be identical. Identical values can stand only once. Like-named read-outs stand apart in the source and are kept apart here.

Assays:
Experiment in all cases: nanoBRET off-target validation
Format in all cases: cell-based
JNK2 = target: T1, JNK2 (Homo sapiens, UniProt P45984); settings: in cellulo nanoBRET, 293T cells
T1 construct: host or cells: HEK293T (ATCC CRL-3216)
T1 sequence (P45984 whole entry): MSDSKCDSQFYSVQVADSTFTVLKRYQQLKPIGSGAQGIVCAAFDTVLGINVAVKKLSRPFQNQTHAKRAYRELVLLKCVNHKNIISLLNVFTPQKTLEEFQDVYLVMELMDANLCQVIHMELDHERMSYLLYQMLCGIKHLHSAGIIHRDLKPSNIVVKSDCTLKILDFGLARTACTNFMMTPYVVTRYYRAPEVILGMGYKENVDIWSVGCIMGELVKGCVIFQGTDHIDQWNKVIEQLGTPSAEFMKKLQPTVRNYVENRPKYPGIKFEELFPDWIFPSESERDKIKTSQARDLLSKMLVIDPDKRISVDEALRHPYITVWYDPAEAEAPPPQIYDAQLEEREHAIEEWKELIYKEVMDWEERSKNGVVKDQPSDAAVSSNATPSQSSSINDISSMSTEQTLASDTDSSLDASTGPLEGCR
Description: (§1) The assay was performed as described previously ([61]). In brief, full-length kinases as listed in table S6 were obtained as plasmids cloned in frame with terminal NanoLuc-fusion (gift from Promega; table S6). […] Serially diluted inhibitor and corresponding tracer as listed in table S6 at the Tracer KD concentration taken from TracerDB (tracerdb.org) ([62]) were pipetted into white 384-well plates (Greiner, 781207) using an ECHO acoustic dispenser (Labcyte). The corresponding protein-transfected cells were added and reseeded at a density of 2 × 10^5 cells/ml after trypsinization and resuspending in Opti-MEM without phenol red (Life Technologies). The system was allowed to equilibrate for 3 hours at 37°C/5% CO2 before bioluminescence resonance energy transfer (BRET) measurements. To measure BRET, NanoBRET NanoGlo Substrate + extracellular NanoLuc Inhibitor (Promega, N2540) was added as per the manufacturer’s protocol, and filtered luminescence was measured on a PHERAstar plate reader (BMG Labtech) equipped with a luminescence filter pair [450-nm BP filter (donor) and 610-nm LP filter (acceptor)]. […] (For step-by-step protocol, see www.eubopen.org/sites/www.eubopen.org/files/attachments/2021/NanoBRET-IC50_v1_0.pdf.)

JNK3 = target: T2, JNK3 (Homo sapiens, UniProt P53779)
T2 construct: host or cells: HEK293T (ATCC CRL-3216)
T2 sequence (P53779 whole entry): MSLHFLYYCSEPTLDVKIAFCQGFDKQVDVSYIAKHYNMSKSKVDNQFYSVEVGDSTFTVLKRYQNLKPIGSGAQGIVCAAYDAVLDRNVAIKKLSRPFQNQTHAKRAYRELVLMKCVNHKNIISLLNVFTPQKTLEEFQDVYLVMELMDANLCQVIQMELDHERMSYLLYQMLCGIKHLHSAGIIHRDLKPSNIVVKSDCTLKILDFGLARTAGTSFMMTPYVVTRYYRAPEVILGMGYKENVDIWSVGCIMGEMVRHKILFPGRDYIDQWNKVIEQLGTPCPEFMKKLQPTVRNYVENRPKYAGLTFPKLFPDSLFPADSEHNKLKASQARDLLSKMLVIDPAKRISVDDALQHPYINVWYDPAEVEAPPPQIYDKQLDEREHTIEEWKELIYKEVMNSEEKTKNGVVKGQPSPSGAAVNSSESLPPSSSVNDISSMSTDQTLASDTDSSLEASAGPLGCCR
Description: as §1

STK10 = target: T3, STK10 (Homo sapiens, UniProt O94804)
T3 construct: host or cells: HEK293T (ATCC CRL-3216)
T3 sequence (O94804 whole entry): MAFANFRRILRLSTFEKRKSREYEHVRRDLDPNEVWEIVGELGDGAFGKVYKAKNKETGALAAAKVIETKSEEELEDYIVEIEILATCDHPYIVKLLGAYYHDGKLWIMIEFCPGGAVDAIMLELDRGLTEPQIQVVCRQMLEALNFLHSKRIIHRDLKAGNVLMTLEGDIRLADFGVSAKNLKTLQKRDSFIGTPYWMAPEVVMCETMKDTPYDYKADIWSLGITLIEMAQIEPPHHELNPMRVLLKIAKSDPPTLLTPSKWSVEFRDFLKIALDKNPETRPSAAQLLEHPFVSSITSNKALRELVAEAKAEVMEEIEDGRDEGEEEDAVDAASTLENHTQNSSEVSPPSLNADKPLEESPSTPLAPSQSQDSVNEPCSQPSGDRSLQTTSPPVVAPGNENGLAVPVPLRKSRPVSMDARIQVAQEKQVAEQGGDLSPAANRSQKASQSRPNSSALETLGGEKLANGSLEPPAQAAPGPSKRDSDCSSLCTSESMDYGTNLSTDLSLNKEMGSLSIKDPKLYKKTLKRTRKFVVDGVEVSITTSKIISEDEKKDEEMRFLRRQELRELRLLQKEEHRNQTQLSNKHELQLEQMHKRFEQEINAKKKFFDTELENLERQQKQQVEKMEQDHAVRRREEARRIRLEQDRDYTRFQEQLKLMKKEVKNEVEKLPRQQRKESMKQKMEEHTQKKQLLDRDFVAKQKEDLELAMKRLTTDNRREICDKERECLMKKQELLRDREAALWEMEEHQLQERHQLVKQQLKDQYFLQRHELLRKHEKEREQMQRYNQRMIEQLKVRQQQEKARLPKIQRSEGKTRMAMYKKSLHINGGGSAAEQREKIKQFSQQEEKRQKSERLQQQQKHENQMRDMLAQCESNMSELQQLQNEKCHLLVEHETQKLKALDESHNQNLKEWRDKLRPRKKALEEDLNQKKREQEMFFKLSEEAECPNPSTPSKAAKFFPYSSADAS
Description: as §1

STK17B = target: T4, STK17B (Homo sapiens, UniProt O94768)
T4 construct: host or cells: HEK293T (ATCC CRL-3216)
T4 sequence (O94768 1-372): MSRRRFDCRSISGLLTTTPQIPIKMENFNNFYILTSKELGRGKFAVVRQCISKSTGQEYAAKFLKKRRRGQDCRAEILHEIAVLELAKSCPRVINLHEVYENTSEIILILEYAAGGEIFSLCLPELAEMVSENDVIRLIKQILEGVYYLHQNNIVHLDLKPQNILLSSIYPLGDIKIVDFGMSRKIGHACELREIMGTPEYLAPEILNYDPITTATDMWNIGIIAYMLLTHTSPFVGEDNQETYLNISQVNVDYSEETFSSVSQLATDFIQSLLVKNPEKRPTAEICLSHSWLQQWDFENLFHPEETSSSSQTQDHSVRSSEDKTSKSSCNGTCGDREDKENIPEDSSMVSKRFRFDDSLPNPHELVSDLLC
Description: as §1

With CCSc1nc(NC)c2c(-c3cccc(NC(=O)Nc4cc(C(C)(C)C)nn4-c4ccc(C)cc4)c3)c[nH]c2n1 [Compound 32] the pEC50 (JNK2) was > 5.30 and 5.57, the pEC50 (JNK3) was 4.82 and the “nanoBRET response normalized to 0% (no tracer) and 100% (no inhibitor) control” value (JNK3; JNK3, inhibitor 8 nM, two replicates, listed as RN341, 0.008 µM) was 99.6644%. The remaining nanoBRET tracer signal at 0.008 µM (JNK3; JNK3, inhibitor 8 nM, two replicates, read-out: nanoBRET response normalized to 0% (no tracer) and 100% (no inhibitor) control) was 90%, the “nanoBRET response normalized to 0% (no tracer) and 100% (no inhibitor) control” value (JNK3; JNK3, inhibitor 16 nM, two replicates, listed as RN341, 0.016 µM) was 91.5832% and the remaining nanoBRET tracer signal at 0.016 µM (JNK3; JNK3, inhibitor 16 nM, two replicates, read-out: nanoBRET response normalized to 0% (no tracer) and 100% (no inhibitor) control) was 91.5%. The “nanoBRET response normalized to 0% (no tracer) and 100% (no inhibitor) control” value (JNK3; JNK3, inhibitor 50 nM, two replicates, listed as RN341, 0.05 µM) was 98.9095%, the remaining nanoBRET tracer signal at 0.05 µM (JNK3; JNK3, inhibitor 50 nM, two replicates, read-out: nanoBRET response normalized to 0% (no tracer) and 100% (no inhibitor) control) was 96.2% and the “nanoBRET response normalized to 0% (no tracer) and 100% (no inhibitor) control” value (JNK3; JNK3, inhibitor 250 nM, two replicates, listed as RN341, […]) was 99.8628%. For the same compound, the remaining nanoBRET tracer signal at […] (JNK3; JNK3, inhibitor 250 nM, two replicates, read-out: nanoBRET response normalized to 0% (no tracer) and 100% (no inhibitor) control) was 96.3%, the “nanoBRET response normalized to 0% (no tracer) and 100% (no inhibitor) control” value (JNK3; JNK3, inhibitor 500 nM, two replicates, listed as RN341, 0.5 µM) was 92.6932% and the remaining nanoBRET tracer signal at 0.5 µM (JNK3; JNK3, inhibitor 500 nM, two replicates, read-out: nanoBRET response normalized to 0% (no tracer) and 100% (no inhibitor) control) was 93.9%. The “nanoBRET response normalized to 0% (no tracer) and 100% (no inhibitor) control” value (JNK3; JNK3, inhibitor 2500 nM, two replicates, listed as RN341, […]) was 84.3032%, the remaining nanoBRET tracer signal at […] (JNK3; JNK3, inhibitor 2500 nM, two replicates, read-out: nanoBRET response normalized to 0% (no tracer) and 100% (no inhibitor) control) was 90.4% and the “nanoBRET response normalized to 0% (no tracer) and 100% (no inhibitor) control” value (JNK3; JNK3, inhibitor 5000 nM, two replicates, listed as RN341, 5 µM) was 67.4443%. The remaining nanoBRET tracer signal at 5 µM (JNK3; JNK3, inhibitor 5000 nM, two replicates, read-out: nanoBRET response normalized to 0% (no tracer) and 100% (no inhibitor) control) was 74.7%, the “nanoBRET response normalized to 0% (no tracer) and 100% (no inhibitor) control” value (JNK3; JNK3, inhibitor 25000 nM, two replicates, listed as RN341, 25 µM) was 34.5338% and the remaining nanoBRET tracer signal at 25 µM (JNK3; JNK3, inhibitor 25000 nM, two replicates, read-out: nanoBRET response normalized to 0% (no tracer) and 100% (no inhibitor) control) was 48.6%. The “nanoBRET response normalized to 0% (no tracer) and 100% (no inhibitor) control” value (STK10; STK10, inhibitor 8 nM, two replicates, listed as RN341, 0.008 µM) was 93.5752%, the remaining activity at 0.008 µM (STK10; STK10, inhibitor 8 nM, two replicates, read-out: nanoBRET response normalized to 0% (no tracer) and 100% (no inhibitor) control) was 98.7% and the “nanoBRET response normalized to 0% (no tracer) and 100% (no inhibitor) control” value (STK10; STK10, inhibitor 16 nM, two replicates, listed as RN341, 0.016 µM) was 98.653%. The remaining activity at 0.016 µM (STK10; STK10, inhibitor 16 nM, two replicates, read-out: nanoBRET response normalized to 0% (no tracer) and 100% (no inhibitor) control) was 95%, the “nanoBRET response normalized to 0% (no tracer) and 100% (no inhibitor) control” value (STK10; STK10, inhibitor 50 nM, two replicates, listed as RN341, 0.05 µM) was 90.2983% and the remaining activity at 0.05 µM (STK10; STK10, inhibitor 50 nM, two replicates, read-out: nanoBRET response normalized to 0% (no tracer) and 100% (no inhibitor) control) was 93.4%. For the same compound, the “nanoBRET response normalized to 0% (no tracer) and 100% (no inhibitor) control” value (STK10; STK10, inhibitor 250 nM, two replicates, listed as RN341, […]) was 75.9451%, the remaining activity at […] (STK10; STK10, inhibitor 250 nM, two replicates, read-out: nanoBRET response normalized to 0% (no tracer) and 100% (no inhibitor) control) was 77.3% and the “nanoBRET response normalized to 0% (no tracer) and 100% (no inhibitor) control” value (STK10; STK10, inhibitor 500 nM, two replicates, listed as RN341, 0.5 µM) was 59.4137%. For the same compound, the remaining activity at 0.5 µM (STK10; STK10, inhibitor 500 nM, two replicates, read-out: nanoBRET response normalized to 0% (no tracer) and 100% (no inhibitor) control) was 61.4%, the “nanoBRET response normalized to 0% (no tracer) and 100% (no inhibitor) control” value (STK10; STK10, inhibitor 2500 nM, two replicates, listed as RN341, […]) was 44.5595% and the remaining activity at […] (STK10; STK10, inhibitor 2500 nM, two replicates, read-out: nanoBRET response normalized to 0% (no tracer) and 100% (no inhibitor) control) was 60.9%. For the same compound, the “nanoBRET response normalized to 0% (no tracer) and 100% (no inhibitor) control” value (STK10; STK10, inhibitor 5000 nM, two replicates, listed as RN341, 5 µM) was 40.1132%, the remaining activity at 5 µM (STK10; STK10, inhibitor 5000 nM, two replicates, read-out: nanoBRET response normalized to 0% (no tracer) and 100% (no inhibitor) control) was 58.5% and the “nanoBRET response normalized to 0% (no tracer) and 100% (no inhibitor) control” value (STK10; STK10, inhibitor 25000 nM, two replicates, listed as RN341, 25 µM) was 8.0832%. For the same compound, the remaining activity at 25 µM (STK10; STK10, inhibitor 25000 nM, two replicates, read-out: nanoBRET response normalized to 0% (no tracer) and 100% (no inhibitor) control) was 6.79%, the pEC50 (STK10; in cellulo nanoBRET, 293T cells) was > 5.30 and 5.82 and the pEC50 (STK17B) was ≤ 4.70. The “nanoBRET response normalized to 0% (no tracer) and 100% (no inhibitor) control” value (STK17B; STK17B, inhibitor 8 nM, two replicates, listed as RN341, 0.008 µM) was 97.0874%, the NanoBRET tracer signal (% of no-inhibitor control) at 0.008 µM (STK17B; STK17B, inhibitor 8 nM, two replicates, read-out: nanoBRET response normalized to 0% (no tracer) and 100% (no inhibitor) control) was 97.6% and the “nanoBRET response normalized to 0% (no tracer) and 100% (no inhibitor) control” value (STK17B; STK17B, inhibitor 16 nM, two replicates, listed as RN341, 0.016 µM) was 82.8095%. For the same compound, the NanoBRET tracer signal (% of no-inhibitor control) at 0.016 µM (STK17B; STK17B, inhibitor 16 nM, two replicates, read-out: nanoBRET response normalized to 0% (no tracer) and 100% (no inhibitor) control) was 94.7%, the “nanoBRET response normalized to 0% (no tracer) and 100% (no inhibitor) control” value (STK17B; STK17B, inhibitor 50 nM, two replicates, listed as RN341, 0.05 µM) was 109.03% and the NanoBRET tracer signal (% of no-inhibitor control) at 0.05 µM (STK17B; STK17B, inhibitor 50 nM, two replicates, read-out: nanoBRET response normalized to 0% (no tracer) and 100% (no inhibitor) control) was 112%. For the same compound, the “nanoBRET response normalized to 0% (no tracer) and 100% (no inhibitor) control” value (STK17B; STK17B, inhibitor 250 nM, two replicates, listed as RN341, […]) was 93.8885%, the NanoBRET tracer signal (% of no-inhibitor control) at […] (STK17B; STK17B, inhibitor 250 nM, two replicates, read-out: nanoBRET response normalized to 0% (no tracer) and 100% (no inhibitor) control) was 111% and the “nanoBRET response normalized to 0% (no tracer) and 100% (no inhibitor) control” value (STK17B; STK17B, inhibitor 500 nM, two replicates, listed as RN341, 0.5 µM) was 103.232% and 77.6568%. The NanoBRET tracer signal (% of no-inhibitor control) at […] (STK17B; STK17B, inhibitor 2500 nM, two replicates, read-out: nanoBRET response normalized to 0% (no tracer) and 100% (no inhibitor) control) was 122% and 101%, the “nanoBRET response normalized to 0% (no tracer) and 100% (no inhibitor) control” value (STK17B; STK17B, inhibitor 5000 nM, two replicates, listed as RN341, 5 µM) was 104.626% and 83.1368% and the “nanoBRET response normalized to 0% (no tracer) and 100% (no inhibitor) control” value (STK17B; STK17B, inhibitor 25000 nM, two replicates, listed as RN341, 25 µM) was 75.7774%. The NanoBRET tracer signal (% of no-inhibitor control) at 25 µM (STK17B; STK17B, inhibitor 25000 nM, two replicates, read-out: nanoBRET response normalized to 0% (no tracer) and 100% (no inhibitor) control) was 80.3%.
